Read-outs that look alike come from different tables or passages of the source.
Assays:
[1] = system: Male CD1 mice; test: Muscle performance in mice (spontaneous wheel running); assay type: in vivo, mouse; conditions: ABA 1 μg/Kg BW with glucose 1 g/Kg BW for 12 weeks
Method: Male CD1 mice (outbread) (8 per group) were administered glucose with the drinking water without (controls) or with the addition of synthetic ABA. The concentrations of glucose and of ABA in water were calculated considering the average daily volume drank by each mice so as to reach a dose of 1 g/Kg BW and 1 μg/Kg BW of ABA. After 12 weeks of treatment the mice (average weight 45.1 and 43.3 grams for the animals treated with glucose and glucose+ABA, respectively) were kept 12 hours in two separate cages, each equipped with a wheel connected to a digital odometer measuring the total distance traveled on the wheel and the time of rotation of the wheel. The tests were performed during the night time on animals with freely available food and water containing glucose alone (controls) or glucose+ABA. The reason for using male CD1 mice for this experiment is their natural predisposition to develop more muscle mass compared to females from the same strain.
Table 6. […] Male CD1mice (outbred) (8/group) with a mean weight of 45.1 and 43.3 g for animals treated with glucose and glucose+ABA, respectively, were kept for the same time (12 hours) in two cages, each containing a wheel connected to a digital cyclometer, capable of measuring the total distance travelled and the duration of rotation of the wheel. The tests (n=2 for each group of animals) were performed during the night hours, with ad libitum food and water, containing glucose (controls) or glucose+ABA.

[2] = Body weight gain induced by chronic high-dose glucose in mice; assay type: in vivo, mouse; conditions: female CD1 mice, ABA 1 μg/Kg BW with glucose 1 g/Kg BW daily in drinking water, 12 weeks
Method: Five, week-old female CD1 mice (outbread) (9 per group) were administered glucose in the drinking water, without (controls) or with the addition of synthetic ABA. To achieve the required daily dose of glucose (1 g/kg BW) and of ABA (1 μg/Kg BW) the daily volume of water drank by the animals used for the test was preliminary established. Based on this volume (5 ml/day), and taking into account an average weight of the mice of 30 grams, the water administered to the animals, contained 0,006 g/ml of glucose and 0,006 μg/ml ABA. The weight control was performed after 12 weeks of treatment on the two groups of animals fasted for 17 hours before measurement of the weight. The reason for using female CD1 for this test was that they show a natural predisposition to accumulation of adipose tissue that is not found, instead, in males of the same strain.
FIG. 8. Daily oral intake of synthetic ABA at the dose of 1 μg/Kg reduces the body weight increase induced by the chronic intake of high-dose glucose (1g/Kg) in mice. Five-week old female CD1 mice (outbred) (9/group) received daily, in the drinking water, a glucose solution without (controls) or with synthetic ABA (see Materials and Methods for details). Body weight was determined after 12 weeks of treatment, and both groups of animals were fasted for 17 hours before measurement. […]

[3] = system: db/db mice; conditions: cited from earlier work
[4] = system: Wistar male rats
Method: For the determination of blood glucose in rats, blood samples were taken from the tail vein of anesthetized animals and blood glucose was measured with a glucometer (Bayer). The quantification of insulin on the same animals, was carried out by sampling blood from the orbital sinus, immediately adding heparin and subjecting each sample to centrifugation at 22000×g for 30 sec: aliquots of plasma were stored at −20° C. The plasma insulin concentration was determined with an ELISA kit (Bertin-Pharma, Montigny, France).
Wistar male rats (obtained from Charles River, Milan, Italy), age between 9 and 13 weeks, were divided into two groups (12 animals per group) and fasted for 17 hours. After mild sedation with diazepam, 1 g/kg BW of glucose was administered by gavage in about 300-400 μl of aqueous solution, containing or not 1 μg/Kg BW of synthetic ABA, or the same dose of ABA or ABA-GE endogenously present in a supercritical or water plant extract. Immediately after gavage, rats were anesthetized with xylazine and ketamine. Blood glucose was measured with a glucometer on blood taken from the tail vein immediately before gavage (time zero) and 15, 30 and 60 minutes after gavage. Each measurement was performed in duplicate.
Two groups of male Wistar rats (12 animals per group), fasted for 17 hours, were subjected to an OGTT (1 g/Kg BW glucose) , without or with 1 μg/Kg BW of synthetic ABA. Glycemia was measured with a glucometer in duplicate on blood taken from the tail vein at baseline (immediately before gavage) and at the indicated times after gavage. Insulinemia was measured by ELISA, in duplicate on plasma samples. Results are mean ±SD.

[5] = Stability tests of ABA at high temperatures (autoclave sterilization); assay type: physicochemical; conditions: autoclave sterilization at 121° C. for 8 min; HPLC-MS
Method: Experiments were performed to evaluate the heat stability of synthetic ABA or of ABA naturally present in aqueous and supercritical extracts. Samples containing known nanomolar concentrations of ABA (either synthetic or present in the extracts) were divided into two aliquots of equal volume and subjected or not (control) to autoclave sterilization at 121° C. for 8 min (the condition generally applied to the sterilization of food). After sterilization, 100 μl of each aliquot and its un-sterilized control were injected into an analytical Hypercarb column (Thermo Scientific, Pittsburgh, Pa.) (4.6×100 mm; particle size 5 μm). Solvent A was water containing 0.1% formic acid (FOA), solvent B was acetonitrile containing 0.1% FOA and solvent flux was 0.8 ml/min. The linear elution gradient was from 100% A to 100% B in 30 min. Fractions were taken every 30 sec, lyophilized, re-dissolved in 11 μl of a solution composed of 90% solvent A and 10% solvent B of the HPLC-coupled mass spectrometry analysis and [^2H6]-ABA was added as an internal standard. Samples were analyzed as previously described under “Determination of the ABA content in several foods”. The amount of ABA present in the aliquots subjected to sterilization was unchanged compared with that measured in the control samples.

[6] = system: myoblasts; conditions: myoblasts incubated in vitro with 100 nM ABA (Bruzzone et al. 2012); cited from earlier work
[7] = In vivo hydrolysis of orally given ABA-GE to ABA, plasma HPLC-MS; parameters: species or system rat; conditions: 30 and 60 min after gavage of synthetic ABA-GE, Wistar rats n=3
Excerpt: Wistar rats (n=3) were given an amount of synthetic ABA-GE by gavage in order to evaluate its in vivo hydrolysis, resulting in the release of ABA. […] Therefore, the ABA-GE present in the aqueous apricot extract contributes to the effective dose of ABA taken with the extract, as it can be hydrolyzed to yield free ABA.
FIG. 4: HPLC-MS analysis of representative plasma samples from a rat subjected to gavage with a solution containing synthetic ABA-GE. […] The amount of ABA released by hydrolysis from its conjugated form ABA-GE at different times (30 and 60 min after gavage) was measured by HPLC-MS. The coefficient of absorbance of ABA-GE at 254 nm, used for chromatographic analysis, is approximately 10 times lower than that of free ABA. This explains the different area of their respective chromatographic peaks.

[8] = synthetic ABA 1 μg/Kg BW during OGTT
[9] = synthetic ABA 1 μg/Kg BW with glucose 1 g/Kg BW by gavage

CC1=CC(=O)CC(C)(C)C1(O)/C=C/C(C)=C\C(=O)O (racemic) [ABA, 2-cis, 4-trans-abscisic acid]
maximal speed recorded compared with that of the controls [1]: 3.2 times
Time of use ([1]; wheel available 12 hours): 105 min
Total distance covered (m) ([1]; wheel available 12 hours): 2693 m
weight increase compared to the controls [2]: significantly lower weight increase
minimum effective dose improving glucose tolerance ([3]; dietary intake, mice diabetic by leptin receptor mutation (Guri et al., 2007)): 100 mg/kg
weight increase compared with the controls ([3]; mice chronically treated with ABA at 100 mg/Kg BW (literature)): not dissimilar compared with the controls
glycemic profile compared to the controls ([4]; ABA 95 μg/Kg BW during OGTT): reduced compared to the controls
glycemic profile compared to the controls ([4]; ABA 100 mg/Kg BW during OGTT): reduced compared to the controls
insulin AUC compared to control rats ([4]; ABA 100 mg/Kg BW during OGTT): comparable to that of control rats
insulin response to the glucose load ([4]; ABA 1 and up to 95 μg/Kg BW): significant decrease
plasma concentration corresponding to the dose ([4]; male, Wistar, rat, in vivo): less than 10 nM
mean level of plasmatic insulin compared to controls [4, 8]: significantly lower
reduction of insulin AUC compared to controls [4, 8]: about 15 times
AUC of glycemia compared to the controls [4, 9]: significantly lower AUC of glycemia
glycemic profile compared to the controls [4, 9]: significantly reduced glycemic profile
amount of ABA after sterilization compared with control samples [5]: unchanged
glucose transport [6]: increased glucose transport

CC1=CC(=O)CC(C)(C)[C@@]1(O)/C=C/C(C)=C\C(=O)O[C@@H]1O[C@H](CO)[C@@H](O)[C@H](O)[C@H]1O [ABA-GE, ABA-glucosyl ester]
chromatographic peak of free ABA in plasma compared to 0 min [7]: marked increase
